Measurements as given in ChEMBL document CHEMBL5365420, “Kinetics, Thermodynamics, and Structural Effects of Quinoline-2-Carboxylates, Zinc-Binding Inhibitors of New Delhi Metallo-β-lactamase-1 Re-sensitizing Multidrug-Resistant Bacteria for Carbapenems” (J Med Chem, 2023).

Columns and labels:
[1] = biological target: T1, 72 kDa type IV collagenase (Homo sapiens, UniProt P08253); test: Inhibition of human recombinant MMP-2 CD at 10 uM using OMNIMMP as substrate incubated for 30 mins by fluorescence based analysis relative to control
Target sequence in this assay (P08253 110-660 limits assumed): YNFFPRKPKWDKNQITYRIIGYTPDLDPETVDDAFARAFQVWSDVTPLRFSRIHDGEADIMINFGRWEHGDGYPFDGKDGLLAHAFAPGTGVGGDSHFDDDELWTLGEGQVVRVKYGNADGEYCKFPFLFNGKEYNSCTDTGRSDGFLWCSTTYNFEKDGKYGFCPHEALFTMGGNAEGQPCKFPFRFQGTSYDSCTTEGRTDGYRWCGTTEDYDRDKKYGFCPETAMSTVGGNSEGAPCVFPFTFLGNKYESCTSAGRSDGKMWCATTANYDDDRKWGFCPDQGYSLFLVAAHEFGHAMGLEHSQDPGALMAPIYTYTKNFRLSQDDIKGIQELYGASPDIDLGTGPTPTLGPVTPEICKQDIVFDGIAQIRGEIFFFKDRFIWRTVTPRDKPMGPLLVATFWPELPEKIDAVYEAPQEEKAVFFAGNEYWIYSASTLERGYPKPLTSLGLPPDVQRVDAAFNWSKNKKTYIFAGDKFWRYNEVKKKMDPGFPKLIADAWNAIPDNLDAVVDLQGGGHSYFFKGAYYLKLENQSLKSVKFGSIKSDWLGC

[2] = biological target: Histone deacetylase 1 (Homo sapiens) (UniProt Q13547); test: Inhibition of C-terminal 6His/FLAG-tagged human recombinant full-length HDAC1 (1 to 482(end) residues) at 10 uM using Boc-Lys-(Ac)-AMC as substrate incubated for 10 mins followed by substrate addition measured after 1 hr by fluorescence based analysis relative to control; conditions: time 70.0 min
[3] = biological target: Carbonic anhydrase 2 (Homo sapiens) (UniProt P00918); test: Inhibition of human CA2 at 10 uM using pNPA as substrate preincubated for 15 mins followed by substrate by absorbance based analysis relative to control
[4] = biological target: Metallo-beta-lactamase type 2 (Bacteria, UniProt C7C422)
Description: Inhibition of C-terminal 6His-tagged full length NDM-1 (unknown origin) expressed in Escherichia coli BL21-DE3 using nitrocefin as substrate incubated for 15 mins followed by substrate addition by absorbance based microplate reader analysis

[5] = Inhibition of IMP-1 (unknown origin) expressed in Escherichia coli BL21-DE3 incubated for 15 mins by absorbance based microplate reader analysis; design: species or system Bacteria
[6] = Inhibition of VIM-2 (unknown origin) incubated for 15 mins by absorbance based microplate reader analysis; design: species or system Bacteria
[7] = Inhibition of GIM1 (unknown origin) incubated for 15 mins by absorbance based microplate reader analysis; design: species or system Bacteria
[8] = Selectivity ratio of Ki for human recombinant MMP-2 CD to Ki for C-terminal 6His-tagged full length NDM-1 (unknown origin)
[9] = biological target: T1, 72 kDa type IV collagenase; test: Binding affinity to human recombinant MMP-2 CD assessed as inhibition constant using OMNIMMP as substrate incubated for 30 mins by fluorescence based analysis
Target sequence in this assay (P08253 whole entry): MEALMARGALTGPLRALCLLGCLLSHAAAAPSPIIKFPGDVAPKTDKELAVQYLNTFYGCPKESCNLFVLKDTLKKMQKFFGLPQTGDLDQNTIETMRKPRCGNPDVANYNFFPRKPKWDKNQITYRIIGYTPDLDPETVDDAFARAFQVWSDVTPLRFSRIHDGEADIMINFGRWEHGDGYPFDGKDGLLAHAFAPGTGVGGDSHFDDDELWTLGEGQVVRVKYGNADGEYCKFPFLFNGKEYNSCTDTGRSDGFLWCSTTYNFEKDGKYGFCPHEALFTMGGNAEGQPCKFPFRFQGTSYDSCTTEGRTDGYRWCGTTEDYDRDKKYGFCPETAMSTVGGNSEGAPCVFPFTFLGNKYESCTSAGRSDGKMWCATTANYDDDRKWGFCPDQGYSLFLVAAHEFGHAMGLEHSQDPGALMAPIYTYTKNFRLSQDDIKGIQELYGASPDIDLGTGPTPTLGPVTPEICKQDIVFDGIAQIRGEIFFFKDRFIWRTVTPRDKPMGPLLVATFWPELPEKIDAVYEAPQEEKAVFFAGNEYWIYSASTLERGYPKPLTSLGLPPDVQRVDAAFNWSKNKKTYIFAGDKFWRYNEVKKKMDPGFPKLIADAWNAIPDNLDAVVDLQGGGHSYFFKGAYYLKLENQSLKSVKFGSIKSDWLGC

Metallo-beta-lactamase type 2, sequence (C7C422 whole entry): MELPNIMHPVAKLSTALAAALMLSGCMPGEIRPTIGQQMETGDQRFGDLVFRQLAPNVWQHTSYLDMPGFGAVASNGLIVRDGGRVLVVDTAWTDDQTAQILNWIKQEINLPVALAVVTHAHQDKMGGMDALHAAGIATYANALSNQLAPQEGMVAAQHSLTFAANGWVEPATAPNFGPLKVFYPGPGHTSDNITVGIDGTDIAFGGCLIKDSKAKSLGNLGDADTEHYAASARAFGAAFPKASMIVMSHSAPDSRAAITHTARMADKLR
Histone deacetylase 1 (Homo sapiens), sequence (Q13547 whole entry): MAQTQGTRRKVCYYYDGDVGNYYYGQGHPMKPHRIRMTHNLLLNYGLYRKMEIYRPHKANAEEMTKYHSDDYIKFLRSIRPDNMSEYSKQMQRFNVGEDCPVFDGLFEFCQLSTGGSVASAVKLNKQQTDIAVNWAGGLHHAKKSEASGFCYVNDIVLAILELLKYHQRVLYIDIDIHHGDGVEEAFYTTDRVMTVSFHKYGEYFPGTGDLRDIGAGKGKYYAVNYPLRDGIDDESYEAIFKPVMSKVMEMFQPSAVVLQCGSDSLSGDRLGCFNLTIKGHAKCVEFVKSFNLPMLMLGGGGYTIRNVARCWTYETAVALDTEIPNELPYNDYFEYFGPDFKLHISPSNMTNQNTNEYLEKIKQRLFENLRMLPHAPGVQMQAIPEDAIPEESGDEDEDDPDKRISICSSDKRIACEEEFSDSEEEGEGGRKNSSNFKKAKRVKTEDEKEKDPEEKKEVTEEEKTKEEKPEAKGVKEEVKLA

SMILES: O=C(O)c1ccc2c(I)cc(I)c(O)c2n1
- inhibition [1]: 5%
- inhibition [2]: < 5%
- inhibition [3]: < 5%
- IC50 [4]: 0.3 µM

SMILES: O=C(O)c1ccc2cccc(NS(=O)(=O)C(F)(F)F)c2n1
- IC50 [4]: 0.9 µM

SMILES: O=C(O)c1ccc2cccc(NS(=O)(=O)c3cccc(Cl)c3)c2n1
- IC50 [4]: 0.5 µM

SMILES: O=C(NOCc1ccccc1)c1cccc(C(=O)NOCc2ccccc2)n1
- IC50 [5]: 102 µM
- inhibition [1]: < 5%
- inhibition [2]: < 5%
- inhibition [3]: < 5%
- IC50 [4]: 7.2 µM

SMILES: COC(=O)c1ccc2cccc(NS(=O)(=O)c3ccc(C(F)(F)F)cc3)c2n1
- IC50 [4]: 0.75 µM

SMILES: O=C(O)c1ccc2cccc(NS(=O)(=O)c3cccc(F)c3)c2n1
- IC50 [4]: 0.68 µM

SMILES: CS(=O)(=O)Nc1cccc2c(Cl)cc(C(=O)O)nc12
- IC50 [5]: 8.11 µM
- inhibition [1]: 90%
- IC50 [6]: 0.47 µM
- IC50 [7]: 21.1 µM
- inhibition [2]: < 5%
- inhibition [3]: < 5%
- IC50 [4]: 1 µM

SMILES: O=C(O)c1cc(Cl)c2cccc(NS(=O)(=O)c3ccccn3)c2n1
- IC50 [4]: 0.28 µM

SMILES: Nc1cccc(-c2cc(C(=O)O)nc3c(NS(=O)(=O)c4ccccn4)cccc23)c1
- IC50 [4]: 0.25 µM

SMILES: O=C(O)c1ccc2c(Cl)ccc(NS(=O)(=O)c3ccccn3)c2n1
- IC50 [4]: 0.29 µM

SMILES: Cc1ccc2cccc(O)c2n1 [8-HYDROXY QUINALDINE]
- IC50 [4]: 274 µM

SMILES: Oc1c(I)cc(I)c2cccnc12 [IODOQUINOL]
- IC50 [4]: 2.5 µM

SMILES: O=C(NOCc1ccccc1)c1ccc2cccc(O)c2n1
- IC50 [5]: 25.2 µM
- IC50 [4]: 11.2 µM

SMILES: COC(=O)c1ccc2cccc(NS(C)(=O)=O)c2n1
- IC50 [4]: 17.6 µM

SMILES: O=C(NOCc1ccccc1)c1ccc2c(Br)cc(Br)c(O)c2n1
- IC50 [4]: 1.47 µM

SMILES: Cc1ccc2cccc(NS(=O)(=O)c3cccc(F)c3)c2n1
- IC50 [4]: 1.4 µM

SMILES: CONC(=O)c1cccc(C(=O)NOC)n1
- IC50 [4]: 84.3 µM

SMILES: Cc1ccc(S(=O)(=O)Nc2cccc3ccc(C(=O)O)nc23)cc1
- IC50 [4]: 1.41 µM

SMILES: O=C(O)c1cc(-c2cccc(F)c2)c2cccc(NS(=O)(=O)c3ccccn3)c2n1
- IC50 [4]: 0.37 µM

SMILES: O=C(O)c1ccc2cccc(O)c2n1
- IC50 [5]: 10.3 µM
- inhibition [1]: < 5%
- IC50 [6]: 0.61 µM
- IC50 [7]: 7.38 µM
- inhibition [2]: < 5%
- inhibition [3]: < 5%
- IC50 [4]: 9.1 µM

SMILES: N#Cc1ccccc1S(=O)(=O)Nc1cccc2ccc(C(=O)O)nc12
- IC50 [4]: 0.47 µM

SMILES: CS(=O)(=O)Nc1ccc(I)c2ccc(C(=O)O)nc12
- inhibition [1]: 94%
- inhibition [2]: < 5%
- inhibition [3]: < 5%
- IC50 [4]: 1.4 µM

SMILES: O=C(O)c1ccc2c(Cl)c(Cl)cc(NS(=O)(=O)c3ccccn3)c2n1
- IC50 [4]: 0.52 µM

SMILES: O=C(O)c1ccc2cccc(NS(=O)(=O)c3cccc([N+](=O)[O-])c3)c2n1
- IC50 [4]: 0.56 µM

SMILES: O=C(O)c1ccc2c(Br)cc(Br)c(O)c2n1
- IC50 [4]: 0.46 µM

SMILES: CS(=O)(=O)Nc1cc(Cl)c(Cl)c2ccc(C(=O)O)nc12
- IC50 [5]: 5.23 µM
- inhibition [1]: 91%
- IC50 [6]: 0.47 µM
- IC50 [7]: 11.2 µM
- inhibition [2]: < 5%
- inhibition [3]: < 5%
- IC50 [4]: 0.95 µM

SMILES: O=C(O)c1ccc2cccc(NS(=O)(=O)Cc3ccccc3)c2n1
- IC50 [4]: 1.28 µM

SMILES: Oc1cccc2ccc(-c3ccccc3)nc12
- IC50 [4]: > 1000 µM

SMILES: CS(=O)(=O)Nc1c(Cl)cc(Cl)c2ccc(C(=O)O)nc12
- IC50 [4]: > 1000 µM

SMILES: O=C(O)c1ccc2cccc(NS(=O)(=O)c3ccccc3Cl)c2n1
- IC50 [4]: 0.44 µM

SMILES: O=C([O-])CN(CCN(CC(=O)[O-])CC(=O)O)CC(=O)O.[Na+].[Na+]
- inhibition [1]: 23%
- inhibition [2]: < 5%
- inhibition [3]: < 5%

SMILES: O=S(=O)(Nc1cccc2cccnc12)c1cccc(F)c1
- IC50 [4]: 6.2 µM

SMILES: CONC(=O)c1ccccn1
- IC50 [4]: 1240 µM

SMILES: O=C(O)c1ccc2cccc(NS(=O)(=O)c3c(Cl)cc(Cl)cc3Cl)c2n1
- IC50 [4]: 0.44 µM

SMILES: O=C(NO)c1cccc(C(=O)NO)n1
- IC50 [4]: > 1000 µM

SMILES: C[C@H](CS)C(=O)N1CCC[C@H]1C(=O)O
- inhibition [1]: < 5%
- inhibition [2]: < 5%
- inhibition [3]: < 5%

SMILES: O=C(O)c1cccc(C(=O)NOCc2ccccc2)n1
- IC50 [4]: 22.7 µM

SMILES: O=C(O)c1ccc2c(Cl)cc(I)c(O)c2n1
- IC50 [4]: 0.48 µM

SMILES: O=C(O)c1ccc2cccc(NS(=O)(=O)c3cccc4cccnc34)c2n1
- inhibition [1]: > 90%
- Ratio Ki [8]: 50
- Ki [9]: 20.7 µM
- IC50 [4]: 0.83 µM

SMILES: Cc1ccc2cccc(NS(=O)(=O)c3ccccc3)c2n1
- IC50 [4]: 1.6 µM

SMILES: CONC(=O)c1cccc(C(=O)O)n1
- IC50 [4]: 27.8 µM

SMILES: O=C(O)c1ccc2cccc(NS(=O)(=O)c3ccccc3)c2n1
- IC50 [5]: 1.22 µM
- inhibition [1]: > 90%
- IC50 [6]: 0.43 µM
- IC50 [7]: 3.07 µM
- inhibition [2]: < 5%
- inhibition [3]: < 5%
- Ratio Ki [8]: 6
- Ki [9]: 2.12 µM
- IC50 [4]: 0.71 µM

SMILES: CON(C)C(=O)c1ccccn1
- IC50 [4]: > 2000 µM

SMILES: O=C(O)c1ccc2ccc3c(c2n1)NS(=O)(=O)c1ccc(C(F)(F)F)cc1-3
- inhibition [1]: > 90%
- inhibition [2]: < 5%
- inhibition [3]: < 5%
- Ratio Ki [8]: 135
- Ki [9]: 27.6 µM
- IC50 [4]: 0.41 µM

SMILES: O=C(NOCc1ccccc1)c1ccccn1
- IC50 [4]: 530 µM

SMILES: O=C(O)c1ccccn1 [2-PICOLINIC ACID]
- IC50 [4]: 303 µM

SMILES: COC(=O)c1ccc2cccc(NS(=O)(=O)c3cccc(F)c3)c2n1
- IC50 [4]: 1.7 µM

SMILES: O=C(O)c1ccc2cccc(NS(=O)(=O)c3ccc(Cl)cc3)c2n1
- IC50 [4]: 0.45 µM

SMILES: CS(=O)(=O)Nc1ccc(-c2cccc(N)c2)c2ccc(C(=O)O)nc12
- inhibition [1]: 95%
- inhibition [2]: < 5%
- inhibition [3]: < 5%
- IC50 [4]: 2.1 µM

SMILES: O=C(O)c1ccc2c(I)cc(I)c(NS(=O)(=O)c3ccccc3)c2n1
- IC50 [4]: > 1000 µM

SMILES: O=C(O)c1ccc2cccc(NS(=O)(=O)c3ccc(C(F)(F)F)cc3[N+](=O)[O-])c2n1
- IC50 [5]: 0.24 µM
- inhibition [1]: > 90%
- IC50 [6]: 0.38 µM
- IC50 [7]: 1.5 µM
- inhibition [2]: < 5%
- inhibition [3]: < 5%
- Ratio Ki [8]: 3
- Ki [9]: 0.6 µM
- IC50 [4]: 0.37 µM

SMILES: CS(=O)(=O)Nc1cccc2c(-c3cccc(N)c3)cc(C(=O)O)nc12
- IC50 [4]: 0.71 µM

SMILES: CONC(=O)c1ccc2cccc(O)c2n1
- IC50 [4]: 13.7 µM

SMILES: O=C(O)c1ccc2c(Cl)cc(Cl)c(O)c2n1
- IC50 [5]: 0.48 µM
- inhibition [1]: 20%
- IC50 [6]: 0.16 µM
- IC50 [7]: 1.26 µM
- inhibition [2]: < 5%
- inhibition [3]: < 5%
- IC50 [4]: 0.54 µM

SMILES: O=C(O)c1cccc(C(=O)O)n1 [DIPICOLINIC ACID]
- IC50 [5]: 9.75 µM
- inhibition [1]: < 5%
- IC50 [6]: 0.45 µM
- IC50 [7]: 15.6 µM
- inhibition [2]: < 5%
- inhibition [3]: < 5%
- IC50 [4]: 7 µM
